The text below walks through data of ChEMBL document CHEMBL1125455, “Novel anthraquinone inhibitors of human leukocyte elastase and cathepsin G” (J Med Chem, 1992).

Calls of active or inactive are those of the source. No cut-off for these calls is given here. Where only a bound is given, the exact number is not on record here.

Test [1] has as its target T1, Cathepsin G (Homo sapiens, UniProt P08311).
T1 sequence (P08311 whole entry): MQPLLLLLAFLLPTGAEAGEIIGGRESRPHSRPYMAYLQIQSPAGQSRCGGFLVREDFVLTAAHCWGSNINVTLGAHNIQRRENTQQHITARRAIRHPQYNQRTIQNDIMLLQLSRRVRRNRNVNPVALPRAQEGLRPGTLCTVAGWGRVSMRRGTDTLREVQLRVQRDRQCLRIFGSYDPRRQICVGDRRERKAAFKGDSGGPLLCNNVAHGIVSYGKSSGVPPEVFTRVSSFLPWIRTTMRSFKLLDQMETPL
Nature of the test: Compound was tested for the enzyme inhibitory activity against Cathepsin G; NI = no inhibition.

The target of test [2] is T2, Neutrophil elastase (Homo sapiens, UniProt P08246).
T2 sequence (P08246 whole entry): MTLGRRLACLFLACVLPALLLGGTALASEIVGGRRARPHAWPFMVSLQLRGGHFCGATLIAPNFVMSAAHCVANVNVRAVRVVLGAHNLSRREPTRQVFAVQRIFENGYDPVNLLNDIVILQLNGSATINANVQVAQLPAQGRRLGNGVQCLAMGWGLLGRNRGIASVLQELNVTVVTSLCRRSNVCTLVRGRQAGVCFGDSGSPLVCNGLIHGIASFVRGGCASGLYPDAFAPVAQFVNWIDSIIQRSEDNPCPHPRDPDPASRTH
Nature of the test: Compound was tested for the enzyme inhibitory activity against Human Leukocyte elastase.

In test [3] the target is T2, Neutrophil elastase. Nature of the test: HLE-inhibitor (Human Leukocyte Elastase) dissociation constant determined by using Dixon Plot.
In test [4] the target is T2, Neutrophil elastase. Nature of the test: Compound was tested for the enzyme inhibitory activity against Human Leukocyte Elastase (HLE).
The target of test [5] is T2, Neutrophil elastase. The test is described as follows: Compound was tested for the enzyme inhibitory activity against Human Leukocyte Elastase (HLE) at 62 uM concentration.
Test [6] has as its target T3, Chymotrypsin-like elastase family member 2A (Sus scrofa) (UniProt P08419).
T3 sequence (whole entry): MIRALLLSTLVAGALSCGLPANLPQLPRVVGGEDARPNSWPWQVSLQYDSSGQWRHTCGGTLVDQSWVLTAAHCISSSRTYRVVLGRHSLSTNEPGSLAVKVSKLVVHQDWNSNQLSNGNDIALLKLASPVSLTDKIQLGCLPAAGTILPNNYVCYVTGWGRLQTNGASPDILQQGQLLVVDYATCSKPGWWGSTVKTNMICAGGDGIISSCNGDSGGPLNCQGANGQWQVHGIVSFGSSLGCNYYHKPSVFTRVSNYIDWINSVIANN
The test is described as follows: Inhibitory activity against Porcine Pancreatic Elastase (PPE) at 62 uM concentration; NI = no inhibition.

The target in test [7] is T4, Neutrophil elastase (Homo sapiens) (UniProt P08246).
T4 sequence (whole entry): T2 sequence (P08246 whole entry)
Nature of the test: Inhibitory activity against Human Leukocyte Elastase (HLE) at 62 uM concentration.

In test [8] the target is T5, Cathepsin G (Homo sapiens) (UniProt P08311).
T5 sequence (whole entry): T1 sequence (P08311 whole entry)
Nature of the test: Inhibitory activity against Cathepsin G (CatG) at 62 uM concentration.

Test [9] concerns the target T2, Neutrophil elastase. The test is described as follows: In vitro inhibition of human leukocyte elastase.
Test [10] concerns the target T1, Cathepsin G. The test is described as follows: Inhibition of Cathepsin G (CatG).
The target in test [11] is Chymotrypsinogen A (Bos taurus) (UniProt P00766). Nature of the test: Inhibitory activity against Chymotrypsinogen at 58 uM concentration.
Test [12] deals with T4, Neutrophil elastase (Homo sapiens). The test is described as follows: Inhibitory activity against Human Leukocyte Elastase (HLE) at 58 uM concentration.
Test [13] addresses T5, Cathepsin G (Homo sapiens). The test is described as follows: Inhibitory activity against Cathepsin G (CatG) at 58 uM concentration.
The target in test [14] is T3, Chymotrypsin-like elastase family member 2A (Sus scrofa). Nature of the test: Inhibitory activity against Porcine Pancreatic Elastase (PPE) at 58 uM concentration.
The target in test [15] is T1, Cathepsin G. Nature of the test: Compound was tested for the enzyme inhibitory activity against Cathepsin G (CatG); NI = no inhibition.
The target of test [16] is T2, Neutrophil elastase. Nature of the test: Compound was tested for the enzyme inhibitory activity against Human Leukocyte Elastase (HLE); NI = no inhibition.
The target of test [17] is T5, Cathepsin G (Homo sapiens). The test is described as follows: Inhibitory activity against Cathepsin G (CatG) at 86 uM concentration.
In test [18] the target is T3, Chymotrypsin-like elastase family member 2A (Sus scrofa). The test is described as follows: Inhibitory activity against Porcine Pancreatic Elastase (PPE) at 86 uM concentration; NI = no inhibition.
The target in test [19] is T4, Neutrophil elastase (Homo sapiens). Nature of the test: Inhibitory activity against Human Leukocyte Elastase (HLE) at 86 uM concentration; NI = no inhibition.
The target is the same in test [20]. The test is described as follows: Inhibitory activity against Human Leukocyte Elastase (HLE) at 61 uM concentration.
The target of test [21] is T5, Cathepsin G (Homo sapiens). Nature of the test: Inhibitory activity against Cathepsin G (CatG) at 61 uM concentration; NI = no inhibition.
In test [22] the target is T3, Chymotrypsin-like elastase family member 2A (Sus scrofa). The test is described as follows: Inhibitory activity against Porcine Pancreatic Elastase (PPE) at 61 uM concentration; NI = no inhibition.
The target in test [23] is Chymotrypsinogen A (Bos taurus) (UniProt P00766). The test is described as follows: Inhibitory activity against Chymotrypsinogen at 61 uM concentration.
The target in test [24] is T3, Chymotrypsin-like elastase family member 2A (Sus scrofa). Nature of the test: Inhibitory activity against Porcine Pancreatic Elastase (PPE) at 70 uM concentration; NI = no inhibition.
Test [25] concerns the target T4, Neutrophil elastase (Homo sapiens). Nature of the test: Inhibitory activity against Human Leukocyte Elastase (HLE) at 70 uM concentration; NI = no inhibition.
Test [26] concerns the target T5, Cathepsin G (Homo sapiens). The test is described as follows: Inhibitory activity against Cathepsin G (CatG) at 70 uM concentration.
Test [27] addresses Chymotrypsinogen A (Bos taurus) (UniProt P00766). The test is described as follows: Inhibitory activity against Chymotrypsinogen at 70 uM concentration; NI = no inhibition. The settings on record: Sus scrofa.

As usually defined, the IC50 is the midpoint of a concentration-inhibition curve. Low readings indicate higher potency, high ones lower potency. Turning to `O=C1c2ccccc2C(=O)c2c1ccc(Cc1ccccc1)c2O`, the IC50 entry was “Not Active” in test [1] and 6.6 µM in test [2].
As a reminder, the Ki is the dissociation constant of the complex between target and ligand, obtained from inhibition or displacement. The low end stands for a stronger hold on the target, the high end for a looser hold on the target. Consider `CCCCOC(=O)Oc1cc(C)cc2c1C(=O)c1c(OC(=O)OCCCC)cc(OCCC)cc1C2=O`, for which the inhibition constant (Ki) in test [3] is 0.15 µM. Besides, the IC50 in test [4] is 1.8 µM.
What is called inhibition is the relative decrease from the control value, in per cent. Compound `CCCOc1cc(O)c2c(c1)C(=O)c1cc(C)cc(O)c1C2=O` came in with a concentration for half-maximal inhibition (IC50) in test [5] of 5.9 µM. The inhibition result in [6] is “inactive”. In addition, the inhibition in [7] amounted to 100%; in test [8] it was 35%.
In [9], `CCCCc1ccc2c(c1O)C(=O)c1c(O)cccc1C2=O` registered an IC50 of 6.4 µM.
As to `CCCCCc1ccc2c(c1O)C(=O)c1c(OC)cccc1C2=O`, the half-inhibitory concentration (IC50) is greater than 60 µM in test [10] and 6.1 µM in test [9].
In the case of `C=CCc1ccc2c(c1O)C(=O)c1c(OC)cccc1C2=O`, the IC50 in [10] was greater than 60 µM; in test [9], 11 µM.
Consider `O=C(O)c1cc(O)c2c(c1)C(=O)c1cc(O)cc(O)c1C2=O`, for which the inhibition came out at 3% in test [11], 21% in test [12], 14% in test [13] and 9% in test [14].
Turning to `COc1cccc2c1C(=O)c1c(ccc(Cc3ccccc3)c1O)C2=O`, the IC50 result in [15] was “No inhibition”; in test [9], 6.7 µM.
In the case of `CC(C)Cc1ccc2c(c1O)C(=O)c1c(O)cccc1C2=O`, in test [9], the IC50 is 8 µM. In other words, the single-digit micromolar range.
Turning to `COc1cccc2c1C(=O)c1c(ccc(Cc3ccccc3)c1OC(C)=O)C2=O`, the IC50 entry in test [15] and in test [16] was “Not Active” throughout.
As for `C=CCc1ccc2c(c1OC)C(=O)c1c(OC)cccc1C2=O`, the figures for the IC50 in [10] and in test [16] were greater than 60 µM and “Not Active”, respectively.
The compound `CCCCOC(=O)Oc1cccc2c1C(=O)c1c(OC(=O)OCCCC)cc(C)cc1C2=O` had an IC50 in test [9] of 5.1 µM. The compound further registered an inhibitory constant (Ki) in test [3] of 1.9 µM.
Take `COc1cccc2c1C(=O)c1c(ccc(CC(C)C)c1O)C2=O`: the IC50 result in test [15] is “No inhibition”; in test [9] it was 11 µM.
In [17], `O=C(O)c1cc(O)c2c(c1)C(=O)c1cccc(O)c1C2=O` returned an inhibition of 22%. For the same compound, the inhibition result in test [18] and in test [19] was “inactive” in each case.
In the case of `CC(=O)OCc1cc(OC(C)=O)c2c(c1)C(=O)c1cccc(OC(C)=O)c1C2=O`, the results for the inhibition in test [20] and in test [23] were 30% and 3%, respectively. In addition, the inhibition result in test [21] and in test [22] was “inactive” in each case.
The compound `CCCCOC(=O)Oc1cc(OC(=O)OCCCC)c2c(c1)C(=O)c1cc(C)cc(OC(=O)OCCCC)c1C2=O` had an IC50 in [9] of 1.3 µM.
As for `COc1cccc2c1C(=O)c1c(ccc(CC3CO3)c1O)C2=O` (stereo not given), the concentration for half-maximal inhibition (IC50) result in test [15] and in test [16] was “Not Active” each time.
As for `CCc1ccc2c(c1)C(=O)c1ccccc1C2=O`, in test [15], the IC50 result was “Not Active”.
`Cc1ccc2c(c1)C(=O)c1ccccc1C2=O` [TECTOQUINONE]: the results for the IC50 entry in test [15] and in test [9] were “Not Active” and 39 µM, respectively.
On to `CC(=O)Oc1cccc2c1C(=O)c1c(OC(C)=O)cc(C(=O)O)cc1C2=O`, for which the inhibition result in [24], in test [25] and in test [27] was “inactive” in each case. This compound also showed an inhibition in test [26] of 5%.
